By IC50 is commonly meant the point on the concentration scale where inhibition reaches its midpoint. Higher therefore signals lower potency.

Each structure is given as a SMILES string.

human adenosine A2a receptor, sequence (P29274 whole entry): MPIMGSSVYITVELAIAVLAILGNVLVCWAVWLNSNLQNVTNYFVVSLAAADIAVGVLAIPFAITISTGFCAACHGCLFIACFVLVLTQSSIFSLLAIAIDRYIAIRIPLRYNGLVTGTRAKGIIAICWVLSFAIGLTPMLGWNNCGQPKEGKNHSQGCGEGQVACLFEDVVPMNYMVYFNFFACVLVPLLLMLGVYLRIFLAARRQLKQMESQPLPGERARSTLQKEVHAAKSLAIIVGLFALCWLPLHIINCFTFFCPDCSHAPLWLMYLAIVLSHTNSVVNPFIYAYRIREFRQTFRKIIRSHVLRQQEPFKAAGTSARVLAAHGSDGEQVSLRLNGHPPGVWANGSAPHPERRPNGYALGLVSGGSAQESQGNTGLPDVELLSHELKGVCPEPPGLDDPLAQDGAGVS

For this experiment, the target named is human adenosine A2a receptor (Homo sapiens (Human), UniProt P29274). Briefly: A2a receptor binding affinity, [3H]-NECA radioligand binding test. Conditions: [3H]-NECA 37 nM; membrane from HEK-293 cells transfected with human adenosine A2a receptor. The procedure, abridged:
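Membranes from HEK-293 cells expressing human A2a receptor were incubated with [3H]-NECA (final 37 nM) and compound for 1 h at room temperature in 50 mM Tris, 10 mM MgCl2, 1 mM EDTA, pH 7.4. Bound ligand was filtered on PEI-coated plates and counted by scintillation to derive IC50 (μM).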
Take `CCCCN1CCN(C(=O)[C@@H](Nc2nc(N)n3nc(-c4ccco4)nc3n2)C2CCCCC2)CC1` [Example 187, (S)-2-((7-amino-2-(furan-2-yl)-[1,2,4]triazolo[1,5-a][1,3,5]triazin-5-yl)amino)-1-(4-butylpiperazin-1-yl)-2-cyclohexylethan-1-one]: the IC50 stood at 10 nM. In other words, the double-digit nanomolar range. Turning to `COCCN1CCN(C(=O)[C@@H](Nc2nc(N)n3nc(-c4ccco4)nc3n2)C2CCCCC2)CC1` [Example 188, (S)-2-((7-amino-2-(furan-2-yl)-[1,2,4]triazolo[1,5-a][1,3,5]triazin-5-yl)amino)-2-cyclohexyl-1-(4-(2-methoxyethyl)piperazin-1-yl)ethan-1-one], the IC50 came to 10 nM.

For `CCCCN1CCN(C(=O)[C@@H]2CCCN2c2nc(N)n3nc(-c4ccc(C)o4)nc3n2)CC1` [Example 189, (S)-(1-(7-amino-2-(5-methylfuran-2-yl)-[1,2,4]triazolo[1,5-a][1,3,5]triazin-5-yl)pyrrolidin-2-yl)(4-butylpiperazin-1-yl)methanone], the IC50 amounted to 9 nM. Consider `CCCCN1CCN(C(=O)[C@@H](Nc2nc(N)n3nc(-c4ccco4)nc3n2)c2ccccc2)CC1` [Example 190, (S)-2-((7-amino-2-(furan-2-yl)-[1,2,4]triazolo[1,5-a][1,3,5]triazin-5-yl)amino)-1-(4-butylpiperazin-1-yl)-2-phenylethan-1-one], for which the IC50 is 8 nM. The IC50 values of the last two compounds are within 1.5-fold of each other. `CCCCN1CCN(C(=O)[C@H](Cc2ccccc2)Nc2nc(N)n3nc(-c4ccco4)nc3n2)CC1` [Example 191, (S)-2-((7-amino-2-(furan-2-yl)-[1,2,4]triazolo[1,5-a][1,3,5]triazin-5-yl)amino)-1-(4-butylpiperazin-1-yl)-3-phenylpropan-1-one]: the IC50 was 6 nM.

As to `Nc1nc(N2CCC[C@H]2C(=O)N2CCN(C(=O)c3ccccc3)CC2)nc2nc(-c3nccs3)nn12` [Example 192], the IC50 stood at 17 nM. This IC50 lies about 2.8-fold higher than the previous one. In turn, `Nc1nc(N2CCC[C@H]2C(=O)N2CCN(Cc3ccccc3)CC2)nc2nc(-c3nccs3)nn12` [Example 193, (S)-(1-(7-amino-2-(thiazol-2-yl)-[1,2,4]triazolo[1,5-a][1,3,5]triazin-5-yl)pyrrolidin-2-yl)(4-benzylpiperazin-1-yl)methanone] returned an IC50 of 10 nM. As for `C[C@H](Nc1nc(N)n2nc(-c3nccs3)nc2n1)C(=O)N1CCN(c2ccc(F)cc2F)CC1` [Example 194, (S)-2-((7-amino-2-(thiazol-2-yl)-[1,2,4]triazolo[1,5-a][1,3,5]triazin-5-yl)amino)-1-(4-(2,4-difluorophenyl)piperazin-1-yl)propan-1-one], the IC50 came to 12 nM. `CC(C)(F)CN1CCN(C(=O)[C@@H](Nc2nc(N)n3nc(-c4ccco4)nc3n2)c2ccccc2)CC1` [Example 195, (S)-2-((7-amino-2-(furan-2-yl)-[1,2,4]triazolo[1,5-a][1,3,5]triazin-5-yl)amino)-1-(4-(2-fluoro-2-methylpropyl)piperazin-1-yl)-2-phenylethan-1-one] returned an IC50 of 3 nM. This IC50 is about 4-fold lower than that of the compound before. As for `Cc1ccc(-c2nc3nc(N4CCC[C@H]4C(=O)N4CCN(CC(F)(F)F)C[C@H]4C)nc(N)n3n2)o1` [Example 196, ((S)-1-(7-amino-2-(5-methylfuran-2-yl)-[1,2,4]triazolo[1,5-a][1,3,5]triazin-5-yl)pyrrolidin-2-yl)((R)-2-methyl-4-(2,2,2-trifluoroethyl)piperazin-1-yl)methanone], the IC50 was 8 nM.

The compound `Cc1ccc(-c2nc3nc(N4CCC[C@H]4C(=O)N4CCC(C5CCN(CC(F)(F)F)CC5)CC4)nc(N)n3n2)o1` [Example 197, (S)-(1-(7-amino-2-(5-methylfuran-2-yl)-[1,2,4]triazolo[1,5-a][1,3,5]triazin-5-yl)pyrrolidin-2-yl)(1′-(2,2,2-trifluoroethyl)-[4,4′-bipiperidin]-1-yl)methanone] gave an IC50 of 3 nM. For `Cc1ccc(-c2nc3nc(N4CCC[C@H]4C(=O)N4CCN(c5ccccc5)C(=O)C4)nc(N)n3n2)o1` [Example 198, 4-((7-amino-2-(5-methylfuran-2-yl)-[1,2,4]triazolo[1,5-a][1,3,5]triazin-5-yl)-L-prolyl)-1-phenylpiperazin-2-one], the IC50 was 8 nM. As for `Cc1ccc(-c2nc3nc(N4CCC[C@H]4C(=O)N4CCN(c5ccccc5)CC4)nc(N)n3n2)o1` [Example 199, (S)-(1-(7-amino-2-(5-methylfuran-2-yl)-[1,2,4]triazolo[1,5-a][1,3,5]triazin-5-yl)pyrrolidin-2-yl)(4-phenylpiperazin-1-yl)methanone], the IC50 stood at 2 nM. As to `Cc1ccc(-c2nc3nc(N4CCC[C@H]4C(=O)N4CCN(c5ccccc5C(F)(F)F)CC4)nc(N)n3n2)o1` [Example 200, (S)-(1-(7-amino-2-(5-methylfuran-2-yl)-[1,2,4]triazolo[1,5-a][1,3,5]triazin-5-yl)pyrrolidin-2-yl)(4-(2-(trifluoromethyl)phenyl)piperazin-1-yl)methanone], the IC50 worked out at 1 nM. Regarding `Cc1ccc(-c2nc3nc(N4CCC[C@H]4C(=O)N4CCC(c5ccc(F)cc5F)CC4)nc(N)n3n2)o1` [Example 201, (S)-(1-(7-amino-2-(5-methylfuran-2-yl)-[1,2,4]triazolo[1,5-a][1,3,5]triazin-5-yl)pyrrolidin-2-yl)(4-(2,4-difluorophenyl)piperidin-1-yl) methanone], the IC50 worked out at 5 nM. `Cc1ccc(-c2nc3nc(N4CCC[C@H]4C(=O)N4CCN(c5nccs5)CC4)nc(N)n3n2)o1` [Example 202, 2-(4-((7-amino-2-(5-methylfuran-2-yl)-[1,2,4]triazolo[1,5-a][1,3,5]triazin-5-yl)-L-prolyl)piperazin-1-yl)thiazole] returned an IC50 of 7 nM. `Cc1ccc(-c2nc3nc(N4CCC[C@H]4C(=O)N4CCN(c5ncccn5)CC4)nc(N)n3n2)o1` [Example 203, (S)-(1-(7-amino-2-(5-methylfuran-2-yl)-[1,2,4]triazolo[1,5-a][1,3,5]triazin-5-yl)pyrrolidin-2-yl)(4-(pyrimidin-2-yl)piperazin-1-yl)methanone] had an IC50 of 6 nM. In the case of `Nc1nc(N2CCC[C@H]2C(=O)N2CC3CCC(C2)N3CC(F)(F)F)nc2nc(-c3ccco3)nn12` [Example 204, ((S)-1-(7-amino-2-(furan-2-yl)-[1,2,4]triazolo[1,5-a][1,3,5]triazin-5-yl)pyrrolidin-2-yl)(8-(2,2,2-trifluoroethyl)-3,8-diazabicyclo[3.2.1]octan-3-yl)methanone], the IC50 worked out at 13 nM. With `C[C@@H]1CN(CC(F)(F)F)CCN1C(=O)[C@@H]1CCCN1c1nc(N)n2nc(-c3ccco3)nc2n1` [Example 205, ((S)-1-(7-amino-2-(furan-2-yl)-[1,2,4]triazolo[1,5-a][1,3,5]triazin-5-yl)pyrrolidin-2-yl)((R)-2-methyl-4-(2,2,2-trifluoroethyl)piperazin-1-yl)methanone], the IC50 worked out at 7 nM. As to `Nc1nc(N2CCC[C@H]2C(=O)N2CCC(C3CCN(CC(F)(F)F)CC3)CC2)nc2nc(-c3ccco3)nn12` [Example 206, (S)-(1-(7-amino-2-(furan-2-yl)-[1,2,4]triazolo[1,5-a][1,3,5]triazin-5-yl)pyrrolidin-2-yl)(1′-(2,2,2-trifluoroethyl)-[4,4′-bipiperidin]-1-yl)methanone], the IC50 was 1 nM. On to `Cc1ccc(-c2nc3nc(N4CC[C@H]4C(=O)N4CCN(C(=O)c5ccccc5)CC4)nc(N)n3n2)o1` [Example 207, (S)-(1-(7-amino-2-(5-methylfuran-2-yl)-[1,2,4]triazolo[1,5-a][1,3,5]triazin-5-yl)azetidin-2-yl)(4-benzoylpiperazin-1-yl)methanone], for which the IC50 stood at 11 nM. This IC50 lies about 11-fold higher than the previous one. `Cc1ccc(-c2nc3nc(N4CC[C@H]4C(=O)N4CCN(Cc5ccc(F)cc5F)CC4)nc(N)n3n2)o1` [Example 208, (S)-(1-(7-amino-2-(5-methylfuran-2-yl)-[1,2,4]triazolo[1,5-a][1,3,5]triazin-5-yl)azetidin-2-yl)(4-(2,4-difluorobenzyl)piperazin-1-yl)methanone] had an IC50 of 3 nM. `Cc1ccc(-c2nc3nc(N4CC[C@H]4C(=O)N4CCN(c5ccc(F)cc5F)CC4)nc(N)n3n2)o1` [Example 209, (S)-(1-(7-amino-2-(5-methylfuran-2-yl)-[1,2,4]triazolo[1,5-a][1,3,5]triazin-5-yl)azetidin-2-yl)(4-(2,4-difluorophenyl)piperazin-1-yl)methanone] gave an IC50 of 1 nM. This IC50 is about 3-fold lower than that of the compound before. In the case of `Cc1ccc(-c2nc3nc(N4CC[C@H]4C(=O)N4CCN(c5ncccn5)CC4)nc(N)n3n2)o1` [Example 210, (S)-(1-(7-amino-2-(5-methylfuran-2-yl)-[1,2,4]triazolo[1,5-a][1,3,5]triazin-5-yl)azetidin-2-yl)(4-(pyrimidin-2-yl)piperazin-1-yl)methanone] it was 1 nM; in that of `CC[C@H](Nc1nc(N)n2nc(-c3ccco3)nc2n1)C(=O)N1CCN(CC(F)(F)F)CC1` [Example 211, (S)-2-((7-amino-2-(furan-2-yl)-[1,2,4]triazolo[1,5-a][1,3,5]triazin-5-yl)amino)-1-(4-(2,2,2-trifluoroethyl)piperazin-1-yl)butan-1-one], 15 nM; in that of `CCC[C@H](Nc1nc(N)n2nc(-c3ccco3)nc2n1)C(=O)N1CCN(CC(F)(F)F)CC1` [Example 212, (S)-2-((7-amino-2-(furan-2-yl)-[1,2,4]triazolo[1,5-a][1,3,5]triazin-5-yl)amino)-1-(4-(2,2,2-trifluoroethyl)piperazin-1-yl)pentan-1-one], 12 nM.

Regarding `CCCC[C@H](Nc1nc(N)n2nc(-c3ccco3)nc2n1)C(=O)N1CCN(CC(F)(F)F)CC1` [Example 213, (S)-2-((7-amino-2-(furan-2-yl)-[1,2,4]triazolo[1,5-a][1,3,5]triazin-5-yl)amino)-1-(4-(2,2,2-trifluoroethyl)piperazin-1-yl)hexan-1-one], the IC50 was found to be 7 nM.
